According to ChEMBL document CHEMBL5550160, “Leveraging a rationally designed veliparib-based anilide eliciting anti-leukemic effects for the design of pH-responsive polymer nanoformulation” (Eur J Med Chem, 2024):

Key:
A549 = assay: cells; assay type: functional, cell-based; settings: Homo sapiens
Description: Antiproliferative activity against human A549 cells assessed as inhibition of cell growth by MTT assay

PC-3 = assay: cells; assay type: functional, cell-based; settings: Homo sapiens
Description: Antiproliferative activity against human PC-3 cells assessed as inhibition of cell growth by MTT assay

HL-60 = assay: cells; settings: Homo sapiens
Description: Antiproliferative activity against human HL-60 cells assessed as inhibition of cell growth by MTT assay

HH = assay: cells; assay type: functional, cell-based; settings: Homo sapiens
Description: Antiproliferative activity against human HH cells assessed as inhibition of cell growth by MTT assay

MOLT-4 = assay: cells; assay type: functional, cell-based; settings: Homo sapiens
Description: Antiproliferative activity against human MOLT-4 cells assessed as inhibition of cell growth by MTT assay

FaDu = assay: cells; assay type: functional, cell-based; settings: Homo sapiens
Description: Antiproliferative activity against human FaDu cells assessed as inhibition of cell growth by MTT assay

SiHa = assay: cells; assay type: functional, cell-based; settings: Homo sapiens
Description: Antiproliferative activity against human SiHa cells assessed as inhibition of cell growth by MTT assay

MDA-MB-231 = assay: Antiproliferative activity against human MDA-MB-231 cells assessed as inhibition of cell growth by MTT assay; assay type: functional, cell-based
K562 = assay: cells; settings: Homo sapiens
Description: Antiproliferative activity against human K562 cells assessed as inhibition of cell growth by MTT assay

Histone deacetylase 1 = Histone deacetylase 1 (Homo sapiens, UniProt Q13547); assay: Inhibition of HDAC1 (unknown origin) using p53 residues 379 to 382 [RHKK(Ac)] as fluorogenic substrate
Histone deacetylase 2 = Histone deacetylase 2 (Homo sapiens, UniProt Q92769); assay: Inhibition of HDAC2 (unknown origin)
Histone deacetylase 3 = Histone deacetylase 3 (Homo sapiens, UniProt O15379); assay: Inhibition of HDAC3 (unknown origin) using p53 residues 379 to 382 [RHKK(Ac)] as fluorogenic substrate
Histone deacetylase 3, sequence (O15379 whole entry, the tested form may be a part): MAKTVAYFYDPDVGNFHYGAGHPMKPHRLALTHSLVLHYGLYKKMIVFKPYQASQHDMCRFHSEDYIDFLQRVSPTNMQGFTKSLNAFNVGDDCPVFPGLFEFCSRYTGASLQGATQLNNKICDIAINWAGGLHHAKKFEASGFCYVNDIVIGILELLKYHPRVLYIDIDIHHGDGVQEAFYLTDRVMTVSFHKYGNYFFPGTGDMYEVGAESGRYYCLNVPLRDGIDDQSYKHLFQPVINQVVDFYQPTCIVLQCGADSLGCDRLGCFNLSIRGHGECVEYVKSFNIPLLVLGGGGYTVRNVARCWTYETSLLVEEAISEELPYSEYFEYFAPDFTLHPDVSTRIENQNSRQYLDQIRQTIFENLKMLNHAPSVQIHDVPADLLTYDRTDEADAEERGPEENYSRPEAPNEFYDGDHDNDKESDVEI

Histone deacetylase 2, sequence (Q92769 whole entry, the tested form may be a part): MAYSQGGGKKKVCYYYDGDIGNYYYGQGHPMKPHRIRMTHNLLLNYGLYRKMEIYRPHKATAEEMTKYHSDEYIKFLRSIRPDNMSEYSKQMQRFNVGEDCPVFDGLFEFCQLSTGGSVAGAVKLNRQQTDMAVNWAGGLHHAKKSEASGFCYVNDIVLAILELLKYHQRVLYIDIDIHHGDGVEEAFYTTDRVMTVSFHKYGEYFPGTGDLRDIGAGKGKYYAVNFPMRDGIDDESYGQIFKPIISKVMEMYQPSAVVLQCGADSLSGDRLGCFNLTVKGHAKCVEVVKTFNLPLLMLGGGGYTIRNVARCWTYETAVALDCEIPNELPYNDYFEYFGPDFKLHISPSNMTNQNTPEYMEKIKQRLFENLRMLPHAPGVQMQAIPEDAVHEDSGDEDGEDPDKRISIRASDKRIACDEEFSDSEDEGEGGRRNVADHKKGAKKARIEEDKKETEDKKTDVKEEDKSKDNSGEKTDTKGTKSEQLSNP
Histone deacetylase 1, sequence (Q13547 whole entry, the tested form may be a part): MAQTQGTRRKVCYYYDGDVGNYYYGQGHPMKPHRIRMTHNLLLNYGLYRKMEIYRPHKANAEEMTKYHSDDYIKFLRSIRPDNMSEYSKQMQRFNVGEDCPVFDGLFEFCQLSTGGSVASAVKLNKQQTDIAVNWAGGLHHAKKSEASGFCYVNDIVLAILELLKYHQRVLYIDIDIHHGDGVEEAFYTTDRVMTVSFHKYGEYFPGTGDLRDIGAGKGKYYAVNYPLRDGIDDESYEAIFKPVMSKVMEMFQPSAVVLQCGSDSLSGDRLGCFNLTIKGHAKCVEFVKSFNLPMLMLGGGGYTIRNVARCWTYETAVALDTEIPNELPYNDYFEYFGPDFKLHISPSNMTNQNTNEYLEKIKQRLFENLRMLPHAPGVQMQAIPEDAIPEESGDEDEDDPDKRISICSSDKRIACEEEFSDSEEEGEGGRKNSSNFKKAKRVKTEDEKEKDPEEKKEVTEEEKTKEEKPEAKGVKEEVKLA

Row | IC50 (A549) [µM] | IC50 (PC-3) [µM] | IC50 (HL-60) [µM] | Compound | also measured
1 | > 10 | > 10 | 4.92 | NC(=O)c1cccc2[nH]c(-c3ccc(NC(=O)CCCCCCCC(=O)Nc4ccccc4N)cc3)nc12 | –
2 | 2.11 | 1.87 | 3.21 | NC(=O)c1cccc2[nH]c(-c3ccc(NC(=O)CCCCCCC(=O)NO)cc3)nc12 | –
3 | > 10 | > 10 | > 10 | C[C@]1(c2nc3c(C(N)=O)cccc3[nH]2)CCCN1 [VELIPARIB] | IC50 (HH): > 10 µM; IC50 (MOLT-4): > 10 µM; IC50 (FaDu): > 10 µM; IC50 (SiHa): > 10 µM; IC50 (MDA-MB-231): > 10 µM; IC50 (K562): > 10 µM
4 | > 10 | > 10 | 3.21 | NC(=O)c1cccc2[nH]c(-c3ccc(NC(=O)CCCC(=O)Nc4ccccc4N)cc3)nc12 | –
5 | > 10 | > 10 | 3.75 | NC(=O)c1cccc2[nH]c(-c3ccc(NC(=O)CCC(=O)Nc4ccccc4N)cc3)nc12 | –
6 | 2.03 | 1.99 | 5.99 | NC(=O)c1cccc2[nH]c(-c3ccc(NCc4ccc(/C=C/C(=O)NO)cc4)cc3)nc12 | –
7 | > 10 | 7.65 | > 10 | NC(=O)c1cccc2[nH]c(-c3ccc(NC(=O)CCCCCCCC(=O)NO)cc3)nc12 | –
8 | > 10 | > 10 | 3.65 | NC(=O)c1cccc2[nH]c(-c3ccc(NCc4ccc(/C=C/C(=O)Nc5ccccc5N)cc4)cc3)nc12 | –
9 | > 10 | > 10 | 7.96 | NC(=O)c1cccc2[nH]c(-c3ccc(NC(=O)CCCCCCCCC(=O)Nc4ccccc4N)cc3)nc12 | –
10 | > 10 | 4.76 | 2.93 | NC(=O)c1cccc2[nH]c(-c3ccc(NC(=O)CCCCC(=O)Nc4ccccc4N)cc3)nc12 | –
11 | 2.31 | 2.34 | 1.23 | NC(=O)c1cccc2[nH]c(-c3ccc(NCc4ccc(C(=O)NO)cc4)cc3)nc12 | –
12 | > 10 | > 10 | > 10 | NC(=O)c1cccc2[nH]c(-c3ccc(NC(=O)CCCC(=O)NO)cc3)nc12 | –
13 | 3.45 | 5.21 | 2.98 | Nc1ccccc1NC(=O)c1ccc(CNC(=O)OCc2ccccc2)cc1 | IC50 (HH): 4.98 µM; IC50 (MOLT-4): 5.67 µM; IC50 (Histone deacetylase 1): 0.544 µM; IC50 (Histone deacetylase 2): 0.613 µM; IC50 (Histone deacetylase 3): 0.624 µM; IC50 (K562): 4.21 µM
14 | 4.32 | > 10 | 2.43 | NC(=O)c1cccc2[nH]c(-c3ccc(NC(=O)CCCCCC(=O)Nc4ccccc4N)cc3)nc12 | –
15 | > 10 | 8.91 | > 10 | NC(=O)c1cccc2[nH]c(-c3ccc(NC(=O)CCCCCCCCC(=O)NO)cc3)nc12 | –
16 | > 10 | > 10 | 7.89 | NC(=O)c1cccc2[nH]c(-c3ccc(NC(=O)CCC(=O)NO)cc3)nc12 | –
17 | 6.98 | 2.44 | 5.45 | NC(=O)c1cccc2[nH]c(-c3ccc(NC(=O)CCCCC(=O)NO)cc3)nc12 | –
18 | 5.41 | 2.32 | 8.76 | NC(=O)c1cccc2[nH]c(-c3ccc(NC(=O)CCCCCC(=O)NO)cc3)nc12 | –
19 | 2.99 | 3.45 | 1.04 | NC(=O)c1cccc2[nH]c(-c3ccc(NC(=O)CCCCCCC(=O)Nc4ccccc4N)cc3)nc12 | –
